Measurements reported in patent US10660877B2 (BRISTOL-MYERS SQUIBB COMPANY, priority 2016, dated 2020).

Experiments:
human TLR9 = human TLR9 (Homo sapiens (Human), UniProt Q9NR96); experiment: TLR9 inhibition reporter assay (HEK-Blue cells, SEAP reporter, ODN2006 stimulation); conditions: read-out: TLR9 IC50, HEK-Blue cells overexpressing human TLR9, ODN2006 5 nM;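 note: compounds tested over 0.05 nM to 50 µM, 22 h incubation, inhibition taken as SEAP signal drop from agonist plus DMSO wells toward a known inhibitor control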
human TLR7 = human TLR7 (Homo sapiens (Human), UniProt Q9NYK1); experiment: TLR7 inhibition reporter assay (HEK-Blue cells, SEAP reporter, gardiquimod stimulation); format: cell-based; conditions: HEK-Blue cells overexpressing human TLR7, gardiquimod 7.5 μM
Procedure: TLR7/8/9 Inhibition Reporter Assays
Briefly, cells are seeded into Greiner 384 well plates (15000 cells per well for TLR7, 20,000 for TLR8 and 25,000 for TLR9) and then treated with test compounds in DMSO to yield a final dose response concentration range of 0.05 nM-50 μM. […] After a 22 hour incubation at 37° C., 5% CO2, SEAP levels are determined with the addition of HEK-Blue™ Detection reagent (Invivogen), a cell culture medium that allows for detection of SEAP, according to manufacturer's specifications. The percent inhibition is determined as the % reduction in the HEK-Blue signal present in wells treated with agonist plus DMSO alone compared to wells treated with a known inhibitor.

human TLR8 = human TLR8 (Homo sapiens (Human), UniProt Q9NR97); experiment: TLR8 inhibition reporter assay (HEK-Blue cells, SEAP reporter, R848 stimulation); conditions: read-out: TLR8 IC50, HEK-Blue cells overexpressing human TLR8, R848 15.9 μM;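 note: compounds tested from 0.05 nM to 50 µM, 22 h at 37 °C, SEAP measured with HEK-Blue Detection, inhibition relative to agonist plus DMSO versus a known inhibitor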
human TLR8, sequence (Q9NR97 27-1041): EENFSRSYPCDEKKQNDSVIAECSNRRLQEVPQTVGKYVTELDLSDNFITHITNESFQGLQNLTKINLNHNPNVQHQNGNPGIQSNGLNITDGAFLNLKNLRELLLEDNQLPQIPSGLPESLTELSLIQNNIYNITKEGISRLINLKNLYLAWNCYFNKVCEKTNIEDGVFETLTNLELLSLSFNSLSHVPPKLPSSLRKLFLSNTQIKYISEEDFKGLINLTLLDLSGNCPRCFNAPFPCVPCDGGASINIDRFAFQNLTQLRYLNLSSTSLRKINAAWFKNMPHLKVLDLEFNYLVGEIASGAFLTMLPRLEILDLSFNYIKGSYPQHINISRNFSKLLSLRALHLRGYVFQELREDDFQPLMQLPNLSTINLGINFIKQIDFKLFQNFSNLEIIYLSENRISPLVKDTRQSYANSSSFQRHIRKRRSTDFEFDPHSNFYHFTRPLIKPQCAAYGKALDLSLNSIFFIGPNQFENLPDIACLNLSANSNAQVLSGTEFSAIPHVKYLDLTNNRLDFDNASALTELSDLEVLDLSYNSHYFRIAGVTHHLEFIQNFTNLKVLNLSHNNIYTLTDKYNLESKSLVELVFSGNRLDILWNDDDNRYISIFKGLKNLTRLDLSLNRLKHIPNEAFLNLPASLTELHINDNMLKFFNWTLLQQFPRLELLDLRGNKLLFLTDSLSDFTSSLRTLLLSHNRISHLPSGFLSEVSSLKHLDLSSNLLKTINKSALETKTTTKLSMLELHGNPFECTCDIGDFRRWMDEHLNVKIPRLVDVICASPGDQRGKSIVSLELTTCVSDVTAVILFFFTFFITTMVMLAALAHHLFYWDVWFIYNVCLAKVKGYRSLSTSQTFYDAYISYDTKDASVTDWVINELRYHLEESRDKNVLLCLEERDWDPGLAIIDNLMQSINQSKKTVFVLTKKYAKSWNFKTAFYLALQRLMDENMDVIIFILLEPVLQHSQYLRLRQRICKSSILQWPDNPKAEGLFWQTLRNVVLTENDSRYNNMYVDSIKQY

human TLR9, sequence (Q9NR96 26-1032): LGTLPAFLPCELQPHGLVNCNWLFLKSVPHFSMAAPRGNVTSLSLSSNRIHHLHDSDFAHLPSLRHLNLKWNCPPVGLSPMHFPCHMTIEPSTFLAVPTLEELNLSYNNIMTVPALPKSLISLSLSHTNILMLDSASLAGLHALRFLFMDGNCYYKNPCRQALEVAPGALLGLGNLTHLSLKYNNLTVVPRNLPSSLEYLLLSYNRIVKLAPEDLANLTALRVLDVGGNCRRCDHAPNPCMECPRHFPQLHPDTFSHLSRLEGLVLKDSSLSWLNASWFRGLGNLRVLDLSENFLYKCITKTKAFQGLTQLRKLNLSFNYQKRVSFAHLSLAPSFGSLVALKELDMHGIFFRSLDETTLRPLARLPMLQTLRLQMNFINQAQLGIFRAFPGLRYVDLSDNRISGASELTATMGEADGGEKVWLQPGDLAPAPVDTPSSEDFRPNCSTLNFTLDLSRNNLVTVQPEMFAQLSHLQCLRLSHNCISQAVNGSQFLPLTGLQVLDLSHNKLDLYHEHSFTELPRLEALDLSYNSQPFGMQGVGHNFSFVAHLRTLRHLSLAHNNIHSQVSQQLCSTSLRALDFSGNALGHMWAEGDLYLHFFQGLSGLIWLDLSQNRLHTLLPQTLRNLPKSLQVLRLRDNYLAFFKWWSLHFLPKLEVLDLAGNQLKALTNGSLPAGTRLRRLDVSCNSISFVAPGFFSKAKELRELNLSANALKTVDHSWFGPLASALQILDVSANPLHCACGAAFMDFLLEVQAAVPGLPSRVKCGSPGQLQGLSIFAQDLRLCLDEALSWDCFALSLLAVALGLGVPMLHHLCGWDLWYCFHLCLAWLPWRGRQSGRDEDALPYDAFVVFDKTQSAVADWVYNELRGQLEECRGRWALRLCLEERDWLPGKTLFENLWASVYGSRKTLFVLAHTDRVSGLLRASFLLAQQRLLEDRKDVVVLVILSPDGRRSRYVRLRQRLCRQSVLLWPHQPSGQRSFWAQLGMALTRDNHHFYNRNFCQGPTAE
human TLR7, sequence (Q9NYK1 27-1049): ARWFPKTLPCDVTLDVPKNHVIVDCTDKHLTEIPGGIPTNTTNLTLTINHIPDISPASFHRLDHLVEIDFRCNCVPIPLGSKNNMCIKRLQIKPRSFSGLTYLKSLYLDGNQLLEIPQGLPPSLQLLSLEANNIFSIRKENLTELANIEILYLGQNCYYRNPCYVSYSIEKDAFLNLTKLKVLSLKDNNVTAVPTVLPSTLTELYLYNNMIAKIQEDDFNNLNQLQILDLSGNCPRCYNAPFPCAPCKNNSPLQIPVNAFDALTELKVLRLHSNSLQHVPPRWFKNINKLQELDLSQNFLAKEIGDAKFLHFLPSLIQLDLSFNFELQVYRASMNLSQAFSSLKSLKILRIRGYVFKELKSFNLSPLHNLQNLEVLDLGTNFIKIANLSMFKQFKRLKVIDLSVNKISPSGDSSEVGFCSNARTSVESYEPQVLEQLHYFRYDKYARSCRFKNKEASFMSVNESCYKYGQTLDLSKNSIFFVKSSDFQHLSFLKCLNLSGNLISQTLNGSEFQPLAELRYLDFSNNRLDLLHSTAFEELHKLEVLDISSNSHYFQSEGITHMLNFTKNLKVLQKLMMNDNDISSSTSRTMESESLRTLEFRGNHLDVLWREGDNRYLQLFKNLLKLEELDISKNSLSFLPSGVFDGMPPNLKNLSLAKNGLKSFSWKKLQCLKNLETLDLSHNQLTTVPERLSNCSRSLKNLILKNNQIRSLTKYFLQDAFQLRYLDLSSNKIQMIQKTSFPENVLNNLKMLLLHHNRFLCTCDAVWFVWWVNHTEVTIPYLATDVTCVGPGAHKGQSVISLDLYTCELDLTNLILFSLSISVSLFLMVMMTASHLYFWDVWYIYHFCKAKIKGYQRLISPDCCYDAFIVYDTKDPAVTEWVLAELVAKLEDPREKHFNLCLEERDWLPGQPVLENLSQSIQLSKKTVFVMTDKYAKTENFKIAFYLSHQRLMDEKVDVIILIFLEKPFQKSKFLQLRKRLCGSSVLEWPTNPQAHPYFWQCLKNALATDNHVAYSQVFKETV

| IC50 (human TLR9) | IC50 (human TLR7) | IC50 (human TLR8) | Compound |
| --- | --- | --- | --- |
| 1110 nM | 4.3 nM | 16.7 nM | COCCNCC(=O)N1CCC(c2ccc3[nH]c(-c4cc(C)nc(C)c4)c(C(C)C)c3c2)CC1 [Example 346, 1-(4-(2-(2,6-dimethylpyridin-4-yl)-3-isopropyl-1H-indol-5-yl)piperidin-1-yl)-2-((2-methoxyethyl)amino)ethan-1-one] |
| 752 nM | 17.4 nM | 47.9 nM | Cc1cc(-c2[nH]c3ccc(C4CCN(C(=O)CNCCC(C)(C)C)CC4)cc3c2C(C)C)cc(C)n1 [Example 347, 2-((3,3-dimethylbutyl)amino)-1-(4-(2-(2,6-dimethylpyridin-4-yl)-3-isopropyl-1H-indol-5-yl)piperidin-1-yl)ethan-1-one] |
| 425 nM | 3.6 nM | 11.3 nM | CCCNCC(=O)N1CCC(c2ccc3[nH]c(-c4cc(C)nc(C)c4)c(C(C)C)c3c2)CC1 [Example 348, 1-(4-(2-(2,6-dimethylpyridin-4-yl)-3-isopropyl-1H-indol-5-yl)piperidin-1-yl)-2-(propylamino)ethan-1-one] |
| 1360 nM | 5.2 nM | 21.9 nM | CCOCCNCC(=O)N1CCC(c2ccc3[nH]c(-c4cc(C)nc(C)c4)c(C(C)C)c3c2)CC1 [Example 349, 1-(4-(2-(2,6-dimethylpyridin-4-yl)-3-isopropyl-1H-indol-5-yl)piperidin-1-yl)-2-((2-ethoxyethyl)amino)ethan-1-one] |
| 3910 nM | 5.3 nM | 29 nM | Cc1cc(-c2[nH]c3ccc(C4CCN(C(=O)CN5CCOCC5)CC4)cc3c2C(C)C)cc(C)n1 [Example 350, 1-(4-(2-(2,6-dimethylpyridin-4-yl)-3-isopropyl-1H-indol-5-yl)piperidin-1-yl)-2-morpholinoethan-1-one] |
| 559 nM | 3.1 nM | 7.3 nM | Cc1cc(-c2[nH]c3ccc(C4CCN(C(=O)CN5CCCCC5)CC4)cc3c2C(C)C)cc(C)n1 [Example 351, 1-(4-(2-(2,6-dimethylpyridin-4-yl)-3-isopropyl-1H-indol-5-yl)piperidin-1-yl)-2-(piperidin-1-yl)ethan-1-one] |
| 365 nM | 3.3 nM | 10.4 nM | Cc1cc(-c2[nH]c3ccc(C4CCN(C(=O)CN5CCCC5)CC4)cc3c2C(C)C)cc(C)n1 [Example 352, 1-(4-(2-(2,6-dimethylpyridin-4-yl)-3-isopropyl-1H-indol-5-yl)piperidin-1-yl)-2-(pyrrolidin-1-yl)ethan-1-one] |
| 429 nM | 4 nM | 9.5 nM | Cc1cc(-c2[nH]c3ccc(C4CCN(C(=O)CNC5(C)CCC5)CC4)cc3c2C(C)C)cc(C)n1 [Example 353, 1-(4-(2-(2,6-dimethylpyridin-4-yl)-3-isopropyl-1H-indol-5-yl)piperidin-1-yl)-2-((1-methylcyclobutyl)amino)ethan-1-one] |
| 447 nM | 3.5 nM | 11.2 nM | Cc1cc(-c2[nH]c3ccc(C4CCN(C(=O)CN(C)C(C)C)CC4)cc3c2C(C)C)cc(C)n1 [Example 354, 1-(4-(2-(2,6-dimethylpyridin-4-yl)-3-isopropyl-1H-indol-5-yl)piperidin-1-yl)-2-(isopropyl(methyl)amino)ethan-1-one] |
| 1070 nM | 8.8 nM | 34 nM | Cc1cc(-c2[nH]c3ccc(C4CCN(C(=O)CN(C)CC(C)C)CC4)cc3c2C(C)C)cc(C)n1 [Example 355, 1-(4-(2-(2,6-dimethylpyridin-4-yl)-3-isopropyl-1H-indol-5-yl)piperidin-1-yl)-2-(isobutyl (methyl)amino)ethan-1-one] |
| 657 nM | 3.3 nM | 13.9 nM | CCN(C)CC(=O)N1CCC(c2ccc3[nH]c(-c4cc(C)nc(C)c4)c(C(C)C)c3c2)CC1 [Example 356, 1-(4-(2-(2,6-dimethylpyridin-4-yl)-3-isopropyl-1H-indol-5-yl)piperidin-1-yl)-2-(ethyl(methyl)amino)ethan-1-one] |
